Two molecules from patent US20130303485A1, “Compositions for Oral Administration of Zoledronic Acid or Related Compounds for Treating Disease” (priority 2012, published 2013) can be followed below.

The structures appear in SMILES notation. Like-named read-outs stand apart in the source and are kept apart here. Some results are limits rather than exact numbers.

The nature of data set [1]: physchem. Here is the method: The aqueous solubility of zoledronic acid and disodium zoledronate tetrahydrate was determined. One gram of the test compound was measured in to a beaker. Demineralized water (pH 5.5) was then added in small increments to the test compound, and sonification was applied to the mixture. The procedure was continued until complete dissolution was achieved. Full dissolution was determined to have been reached when a clear solution was present with no visible material. The volume of water required to reach full dissolution was used to calculate a solubility value expressed in grams per 100 mL. The procedure was performed for each compound.

The test system of data set [2] is rat complete Freund's adjuvant (CFA) model of inflammatory pain. Type of data set: in vivo, Sprague-Dawley rats. The settings on record: for improvement in pain threshold from baseline: day three. Here is the method: The effect of orally administered zoledronic acid on inflammatory pain was examined using the rat complete Freund's adjuvant (CFA) model. Inflammatory pain was induced by injection of 100% CFA in a 75 μL volume into the left hind paws of Sprague-Dawley rats on day 0, followed by assessments on days 1-3. Animals were orally administered vehicle (control), zoledronic acid 18 mg/m^2 (or 3 mg/kg), zoledronic acid 120 mg/m^2 (or 20 mg/kg), or zoledronic acid 900 mg/m^2 (or 150 mg/kg) daily on days 1-3. Drug was dissolved in distilled water and prepared fresh daily. Animals were fasted prior to dosing. Under current FDA guidelines for extrapolating starting dosages from animals to humans, dosages expressed in mg/m^2 are considered equivalent between mammalian species. Thus, for example, 18 mg/m^2 in a rat is considered equivalent to 18 mg/m^2 in a human being, while 3 mg/kg in a rat may not be equivalent to 3 mg/kg in a human being.
Values for inflammatory pain (mechanical hyperalgesia) in the vehicle and drug-treated animals were obtained on day 0 prior to CFA injection, and at baseline and post-treatment on days 1-3. Pain was assessed using a digital Randall-Selitto device (dRS; IITC Life Sciences, Woodland Hills, Calif.). Animals were placed in a restraint sling that suspended the animal, leaving the hind limbs available for testing. Paw compression threshold was measured by applying increasing pressure to the plantar surface of the hind paw with a dome-shaped tip placed between the 3rd and 4th metatarsus. Pressure was applied gradually over approximately 10 seconds. Measurements were taken from the first observed nocifensive behavior of vocalization, struggle or withdrawal. A cut-off value of 300 g was used to prevent injury to the animal.
Reversal of inflammatory pain was calculated according to the formula:
% reversal=(Post-treatment−Post-CFA baseline)/(Pre-CFA baseline−Post-CFA baseline)×100.
The experiment was carried out using 9-10 animals per group.

Data set [3] relates to rat complete Freund's adjuvant (CFA) model of arthritis pain. Briefly: Rat complete Freund's adjuvant (CFA) model of arthritis pain, paw compression threshold (Randall-Selitto). Type of data set: in vivo. The settings on record: evaluated day 14 post CFA. Here is the method: The effect of orally administered zoledronic acid on arthritis pain was examined in the rat complete Freund's adjuvant (CFA) model of arthritis pain. In this model, injection of 100% complete Freund's adjuvant (CFA) in a […] volume into the left hind paws is followed by a 10-14 day period to allow for the development of arthritis pain. Animals were orally administered vehicle (control), zoledronic acid 54 mg/m^2 (or 9 mg/kg), or zoledronic acid 360 mg/m^2 (or 60 mg/kg), divided in three equal daily doses on the first three days post CFA injection. Drug was dissolved in distilled water and prepared fresh daily. Animals were fasted prior to dosing.
Arthritis pain (mechanical hyperalgesia) in the vehicle and drug-treated animals was evaluated on day 14 post CFA injection using a digital Randall-Selitto device (dRS; IITC Life Sciences, Woodland Hills, Calif.). Animals were placed in a restraint sling that suspended the animal, leaving the hind limbs available for testing. Paw compression threshold was measured by applying increasing pressure to the plantar surface of the hind paw with a dome-shaped tip placed between the 3rd and 4th metatarsus. Pressure was applied gradually over approximately 10 seconds. […]
Reversal of arthritis pain in the ipsilateral (CFA-injected) paw was calculated according to the formula: […]

Data set [4] has as its system rat tibia fracture model of complex regional pain syndrome (CRPS). The experiment in a line: Rat tibia fracture model of complex regional pain syndrome (CRPS): hindpaw pain, weight bearing, edema, warmth. It counts as in vivo. The settings on record: oral 18 mg/m^2/day (3 mg/kg/day) for 28 days. Here is the method: The effect of orally administered zoledronic acid was examined in the rat tibia fracture model of complex regional pain syndrome (CRPS). CRPS was induced in the rats by fracturing the right distal tibias of the animals and casting the fractured hindpaws for 4 weeks, as described in Guo T Z et al. (Pain. 2004; 108:95-107).
Animals were orally administered either vehicle (control) or zoledronic acid, in a dosage of 18 mg/m^2/day (3 mg/kg/day) for 28 days, starting on the day of fracture and casting. Drug was dissolved in distilled water and administered by gavage. Animals were fasted for 4 hours before and 2 hours after dosing. At the end of the 28-day period, casts were removed, and on the following day, the rats were tested for hindpaw pain, edema, and warmth.
Pain was assessed by measuring hyperalgesia, and weight bearing.
To measure hyperalgesia, an up-down von Frey testing paradigm was used. Rats were placed in a clear plastic cylinder (20 cm in diameter) with a wire mesh bottom and allowed to acclimate for 15 minutes. The paw was tested with one of a series of eight von Frey hairs ranging in stiffness from 0.41 g to 15.14 g. The von Frey hair was applied against the hindpaw plantar skin at approximately midsole, taking care to avoid the tori pads. The fiber was pushed until it slightly bowed and then it was jiggled in that position for 6 seconds. Stimuli were presented at an interval of several seconds. Hindpaw withdrawal from the fiber was considered a positive response. The initial fiber presentation was 2.1 g and the fibers were presented according to the up-down method of Dixon to generate six responses in the immediate vicinity of the 50% threshold. […].
An incapacitance device (IITC Inc. Life Science, Woodland, Calif., USA) was used to measure hindpaw weight bearing, a postural effect of pain. The rats were manually held in a vertical position over the apparatus with the hindpaws resting on separate metal scale plates and the entire weight of the rat was supported on the hindpaws. The duration of each measurement was 6 seconds and 10 consecutive measurements were taken at 60-second intervals. Eight readings (excluding the highest and lowest ones) were averaged to calculate the bilateral hindpaw weight-bearing values. Weight bearing data were analyzed as the ratio between right (fracture) and left hindpaw weight bearing values ((2R/(R+L))×100%).
A laser sensor technique was used to determine the dorsal-ventral thickness of the hindpaw. Before baseline testing the bilateral hindpaws were tattooed with a 2 to 3 mm spot on the dorsal skin over the midpoint of the third metatarsal. […]
The temperature of the hindpaw was measured using a fine wire thermocouple (Omega, Stanford, Conn., USA) applied to the paw skin. […]

Where [5] appears, read: oral 18 mg/m^2 (3 mg/kg) daily on days 1-3.
Setting [6] is: oral 900 mg/m^2 (150 mg/kg) daily on days 1-3.

Consider `O.O.O.O.O=P([O-])(O)C(O)(Cn1ccnc1)P(=O)([O-])O.[Na+].[Na+]` [disodium zoledronate tetrahydrate], for which the aqueous solubility in data set [1] (pH 5.5) is listed as not below 12.5 g/100 mL.

On to `O=P(O)(O)C(O)(Cn1ccnc1)P(=O)(O)O` [zoledronic acid], for which the “reversal of inflammatory pain” value worked out at 29% in data set [2] (setting [5]) and 48% in data set [2] (setting [6]). The “improvement in pain threshold from baseline” value in data set [2] (setting [5]) worked out at 49%; in data set [2] (setting [6]), 83%. Moreover, the “paw compression thresholds versus vehicle” value in data set [2] (oral 18 mg/m^2, entire measurement period after 30 minutes from start of treatment) is “higher than for vehicle”; in data set [2] (oral 120 mg/m^2 (20 mg/kg) daily, all time points during the assessment period), “approximately equal or inferior to vehicle”; in data set [2] (two higher doses (120 and 900 mg/m^2), first two days of dosing), “lower than vehicle”. For the same molecule, in data set [2] (oral 900 mg/m^2 (150 mg/kg) daily on days 1-3, two days after cessation of dosing), the toxicity result was “significant toxicity necessitating euthanization of all the animals in this group”. Moreover, the figures for the “reversal of arthritis pain” value in data set [3] (oral 54 mg/m^2 (9 mg/kg) in three equal daily doses) and in data set [3] (oral 360 mg/m^2 (60 mg/kg) in three equal daily doses) were 33% and 54%, respectively. Also, the “reduction of hindpaw warmth versus vehicle” value in data set [4] is given as 5%. Further, in data set [4], the “reversal of fracture induced pain (von Frey threshold) as compared to vehicle” value was 77%. For the same molecule, in data set [4] (fracture hindlimb), the “hindlimb weight bearing, % of normal” value is listed as 86 % of normal. The “reduction of hindpaw edema versus vehicle” value in data set [4] (hindpaw thickness) is on record as 60%. The molecule further registered a solubility in data set [1] (pH 5.5, water, thermodynamic from solid) not below 2500 µg/mL.
